Experimental data published in paper PMC7588595, “Small-molecule active pharmaceutical ingredients of approved cancer therapeutics inhibit human aspartate/asparagine-β-hydroxylase” (Bioorganic & Medicinal Chemistry, 2020).
Where a name gives a salt, the structure may show the parent alone. Read-outs that look alike come from different tables or passages of the source.

Target: T1, human AspH (His6-AspH315–758) (Homo sapiens, UniProt Q12797)
T1 construct: N-Terminally His6-tagged human AspH315–758 (His6-AspH315–758) was produced in Escherichia coli BL21 (DE3) cells; made in house; host or cells: Escherichia coli BL21 (DE3), pET-28a(+) vector
T1 sequence (Q12797 315-758): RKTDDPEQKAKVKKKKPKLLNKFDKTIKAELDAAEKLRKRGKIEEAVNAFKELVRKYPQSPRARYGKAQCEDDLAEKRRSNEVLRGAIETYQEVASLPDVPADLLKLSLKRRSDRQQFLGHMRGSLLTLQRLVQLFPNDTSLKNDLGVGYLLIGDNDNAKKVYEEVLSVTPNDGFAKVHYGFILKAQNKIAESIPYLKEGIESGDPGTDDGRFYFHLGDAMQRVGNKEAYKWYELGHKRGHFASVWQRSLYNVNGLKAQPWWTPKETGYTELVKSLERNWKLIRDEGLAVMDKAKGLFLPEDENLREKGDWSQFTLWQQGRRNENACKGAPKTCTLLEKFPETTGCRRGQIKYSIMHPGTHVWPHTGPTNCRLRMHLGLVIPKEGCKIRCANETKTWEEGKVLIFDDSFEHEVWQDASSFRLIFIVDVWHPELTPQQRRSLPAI
Experiment: SPE-MS AspH inhibition assay (hFX-CP101-119 substrate hydroxylation)
Assay type: biochemical

[1] = AspH-inhibitor screening, 384-well Plate 1
[2] = AspH-inhibitor screening, 384-well Plate 1, substrate conversion
[3] = AspH-inhibitor screening, Plate 1-duplicate
[4] = AspH-inhibitor screening, Plate 1-duplicate, substrate conversion

Structure (SMILES) | Plate 1 (% inhibition) [1] | Plate 1 (% conversion) [2] | Plate 1-duplicate (% inhibition) [3] | Plate 1-duplicate (% conversion) [4] | Plate 1 (% conversion) | Plate 1 (% inhibition) | Plate 1-duplicate (% conversion) | Plate 1-duplicate (% inhibition)
COc1cccc2c1C(=O)c1c(O)c3c(c(O)c1C2=O)C[C@@](O)(C(=O)CO)C[C@@H]3O[C@H]1C[C@H](N)[C@H](O)[C@H](C)O1 [Doxorubicin] | -11.25% | 54.95% | -1.25% | 52.66% |  |  |  | 
CN1CCC(COc2cnc(-c3cccc(Cn4nc(-c5cccc(C#N)c5)ccc4=O)c3)nc2)CC1 [EMD1214063] | 3.55% | 48.11% | 3.19% | 50.46% |  |  |  | 
Nc1ccccc1NC(=O)c1ccc(CNC(=O)OCc2cccnc2)cc1 [Entinostat] | -5.93% | 52.49% | -4.09% | 54.07% |  |  |  | 
CNC(=O)c1ccc(N2C(=S)N(c3ccc(C#N)c(C(F)(F)F)c3)C(=O)C2(C)C)cc1F [Enzalutamide] | -2.61% | 50.95% | -6.89% | 55.46% |  |  |  | 
Cn1cc(C2=C(c3cn(C4CCN(Cc5ccccn5)CC4)c4ccccc34)C(=O)NC2=O)c2ccccc21 [Enzastaurin] | -3.95% | 51.57% | -0.48% | 52.28% |  |  |  | 
COc1cccc2c1C(=O)c1c(O)c3c(c(O)c1C2=O)C[C@@](O)(C(=O)CO)C[C@@H]3O[C@H]1C[C@H](N)[C@@H](O)[C@H](C)O1 [Epirubicin hydrochloride] | -8.14% | 53.51% | -28.05% | 65.95% |  |  |  | 
C/C(=C\c1csc(C)n1)[C@@H]1C[C@@H]2O[C@]2(C)CCC[C@H](C)[C@H](O)[C@@H](C)C(=O)C(C)(C)[C@@H](O)CC(=O)O1 [Epothilone B (Patupilone)] | -5.33% | 52.21% | -7.34% | 55.68% |  |  |  | 
Cc1c(C(=O)Nc2ccc(N3C[C@@H](C)O[C@@H](C)C3)nc2)cccc1-c1ccc(OC(F)(F)F)cc1 [Erismodegib] | -2.59% | 50.95% | -6.71% | 55.37% |  |  |  | 
C#Cc1cccc(Nc2ncnc3cc(OCCOC)c(OCCOC)cc23)c1 [Erlotinib hydrochloride] | -99.93% | 95.90% | -12.97% | 58.47% |  |  |  | 
C[C@]12CC[C@@H]3c4ccc(OC(=O)N(CCCl)CCCl)cc4CC[C@H]3[C@@H]1CC[C@@H]2OP(=O)(O)O [Estramustine sodium phosphate] |  |  |  |  | 17.18% | 70.54% | 20.11% | 64.39%
COc1cc([C@@H]2c3cc4c(cc3[C@@H](O[C@@H]3O[C@@H]5CO[C@@H](C)O[C@H]5[C@H](O)[C@H]3O)[C@H]3COC(=O)[C@H]23)OCO4)cc(OC)c1O [Etoposide] | -0.43% | 49.95% | -2.73% | 53.40% |  |  |  | 
CO[C@H]1C[C@@H]2CC[C@@H](C)[C@@](O)(O2)C(=O)C(=O)N2CCCC[C@H]2C(=O)O[C@H]([C@H](C)C[C@@H]2CC[C@@H](OCCO)[C@H](OC)C2)CC(=O)[C@H](C)/C=C(\C)[C@@H](O)[C@@H](OC)C(=O)[C@H](C)C[C@H](C)/C=C/C=C/C=C/1C [Everolimus] | -18.20% | 58.15% | -27.79% | 65.82% |  |  |  | 
C=C1C[C@@H]2[C@H](CC[C@]3(C)C(=O)CC[C@@H]23)[C@@]2(C)C=CC(=O)C=C12 [Exemestane] | -2.81% | 51.05% | 2.16% | 50.97% |  |  |  | 
C=CC[C@@H]1/C=C(\C)C[C@H](C)C[C@H](OC)[C@H]2O[C@@](O)(C(=O)C(=O)N3CCCC[C@H]3C(=O)O[C@H](/C(C)=C/[C@@H]3CC[C@@H](O)[C@H](OC)C3)[C@H](C)[C@@H](O)CC1=O)[C@H](C)C[C@@H]2OC.O [FK 506_Tacrolimus] | -2.23% | 50.78% | -2.68% | 53.37% |  |  |  | 
Cl.O=C(/C=C/c1cccnc1)NCCCCC1CCN(C(=O)c2ccccc2)CC1 [FK-866 HCl_Daporinad] | 2.15% | 48.76% | -6.78% | 55.40% |  |  |  | 
CC(C)(C)NC(=O)[C@H]1CC[C@H]2[C@@H]3CC[C@H]4NC(=O)C=C[C@]4(C)[C@H]3CC[C@]12C [Finasteride] | -3.25% | 51.25% | 5.03% | 49.55% |  |  |  | 
O=c1[nH]c(=O)n([C@H]2C[C@H](O)[C@@H](CO)O2)cc1F [Floxuridine] | 0.74% | 49.41% | 5.87% | 49.13% |  |  |  | 
Nc1nc(F)nc2c1ncn2[C@@H]1O[C@H](COP(=O)(O)O)[C@@H](O)[C@@H]1O [Fludarabine phosphate] | 5.12% | 47.39% | 1.33% | 51.38% |  |  |  | 
O=c1[nH]cc(F)c(=O)[nH]1 [Fluorouracil] | 7.47% | 46.30% | 5.36% | 49.38% |  |  |  | 
CC(C)C(=O)Nc1ccc([N+](=O)[O-])c(C(F)(F)F)c1 [Flutamide] | 0.33% | 49.60% | 10.24% | 46.97% |  |  |  | 
C[C@]12CC[C@@H]3c4ccc(O)cc4C[C@@H](CCCCCCCCC[S+]([O-])CCCC(F)(F)C(F)(F)F)[C@H]3[C@@H]1CC[C@@H]2O (stereo partly drawn) [Fulvestrant] | 40.68% | 30.96% | 22.43% | 40.92% |  |  |  | 
CC(C)NC[C@@H](C(=O)N1CCN(c2ncnc3c2[C@H](C)C[C@H]3O)CC1)c1ccc(Cl)cc1 [GDC-0068] | -1.30% | 50.35% | 4.48% | 49.82% |  |  |  | 
CS(=O)(=O)N1CCN(Cc2cc3nc(-c4cccc5[nH]ncc45)nc(N4CCOCC4)c3s2)CC1 [GDC-0941_Pictilisib] | 1.37% | 49.12% | 2.57% | 50.77% |  |  |  | 
Cc1c(CN2CCN(C(=O)[C@H](C)O)CC2)sc2c(N3CCOCC3)nc(-c3cnc(N)nc3)nc12 [GDC-0980] | 2.44% | 48.62% | 1.54% | 51.28% |  |  |  | 
